{"source": "ChEMBL document CHEMBL1201862", "about": "“PubChem BioAssay data set” (2004)", "test_in_all_cases": "NCI-60 cell line screen, 48 h", "key": {"OVCAR-8": {"system": "OVCAR-8"}, "NCI-H522": {"system": "NCI-H522"}, "OVCAR-5": {"system": "OVCAR-5"}, "HT-29": {"system": "HT-29"}, "A549": {"system": "A549"}, "RPMI-8226": {"system": "RPMI-8226"}, "SNB-19": {"system": "SNB-19"}, "786-0": {"system": "786-0"}, "HCT-116": {"system": "HCT-116"}, "NCI/ADR-RES": {"system": "NCI/ADR-RES"}, "MCF7": {"system": "MCF7"}, "NCI-H23": {"system": "NCI-H23"}, "DU-145": {"system": "DU-145"}, "HCT-15": {"system": "HCT-15"}, "SK-OV-3": {"system": "SK-OV-3"}, "RXF 393": {"system": "RXF 393"}, "CAKI-1": {"system": "CAKI-1"}, "HCC 2998": {"system": "HCC 2998"}, "SW-620": {"system": "SW-620"}, "UO-31": {"system": "UO-31"}, "MOLT-4": {"system": "MOLT-4"}, "MDA-MB-435": {"system": "MDA-MB-435"}, "U-251": {"system": "U-251"}, "OVCAR-3": {"system": "OVCAR-3"}, "SNB-75": {"system": "SNB-75"}, "SK-MEL-5": {"system": "SK-MEL-5"}, "MDA-MB-231": {"system": "MDA-MB-231"}, "KM12": {"system": "KM12"}, "TK-10": {"system": "TK-10"}, "LOX IMVI": {"system": "LOX IMVI"}, "EKVX": {"system": "EKVX"}, "A498": {"system": "A498"}, "SN12C": {"system": "SN12C"}, "CCRF-CEM": {"system": "CCRF-CEM"}, "PC-3": {"system": "PC-3"}, "SF-295": {"system": "SF-295"}, "NCI-H226": {"system": "NCI-H226"}, "T47D": {"system": "T47D"}, "BT-549": {"system": "BT-549"}, "SK-MEL-2": {"system": "SK-MEL-2"}, "UACC-257": {"system": "UACC-257"}, "SF-539": {"system": "SF-539"}, "UACC-62": {"system": "UACC-62"}, "IGROV-1": {"system": "IGROV-1"}, "COLO 205": {"system": "COLO 205"}, "M14": {"system": "M14"}, "SK-MEL-28": {"system": "SK-MEL-28"}, "HOP-62": {"system": "HOP-62"}, "SR": {"system": "SR"}, "OVCAR-4": {"system": "OVCAR-4"}, "ACHN": {"system": "ACHN"}, "SF-268": {"system": "SF-268"}, "K562": {"system": "K562"}, "HOP-92": {"system": "HOP-92"}, "Hs-578T": {"system": "Hs-578T"}}, "note": "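Growth conditions: 96-well plates. Treatment: test compound, 48 hours, 5 concentrations. Analysis: linear interpolation between bracketing concentrations; unreached endpoints set to highest concentration. At the GI50, growth is halved.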 Active and inactive are the calls of the source. Rule as the data show it: active = GI50 up to about 1.1 µM and inactive = higher.", "data": [{"molecule": "CN(C)CCNc1ccc(NCCN(C)C)c2c1C(=O)c1ncsc1C2=O", "values": [{"measurement": "GI50", "setting": "OVCAR-8", "result": "12.5 µM (inactive)"}, {"measurement": "GI50", "setting": "NCI-H522", "result": "11.6 µM (inactive)"}, {"measurement": "GI50", "setting": "OVCAR-5", "result": "21.8 µM (inactive)"}, {"measurement": "GI50", "setting": "HT-29", "result": "6.46 µM (inactive)"}, {"measurement": "GI50", "setting": "A549", "result": "11.9 µM (inactive)"}, {"measurement": "GI50", "setting": "RPMI-8226", "result": "10.6 µM (inactive)"}, {"measurement": "GI50", "setting": "SNB-19", "result": "18.6 µM (inactive)"}, {"measurement": "GI50", "setting": "786-0", "result": "9.1 µM (inactive)"}, {"measurement": "GI50", "setting": "HCT-116", "result": "8.18 µM (inactive)"}, {"measurement": "GI50", "setting": "NCI/ADR-RES", "result": "35.7 µM (inactive)"}, {"measurement": "GI50", "setting": "MCF7", "result": "7.33 µM (inactive)"}, {"measurement": "GI50", "setting": "NCI-H23", "result": "15.2 µM (inactive)"}, {"measurement": "GI50", "setting": "DU-145", "result": "13.2 µM (inactive)"}, {"measurement": "GI50", "setting": "HCT-15", "result": 11.4, "unit": "µM"}, {"measurement": "GI50", "setting": "SK-OV-3", "result": "18.8 µM (inactive)"}, {"measurement": "GI50", "setting": "RXF 393", "result": "18.6 µM (inactive)"}, {"measurement": "GI50", "setting": "CAKI-1", "result": "16.9 µM (inactive)"}, {"measurement": "GI50", "setting": "HCC 2998", "result": "15 µM (inactive)"}, {"measurement": "GI50", "setting": "SW-620", "result": "9.82 µM (inactive)"}, {"measurement": "GI50", "setting": "UO-31", "result": "15.2 µM (inactive)"}, {"measurement": "GI50", "setting": "MOLT-4", "result": "1.94 µM (inactive)"}, {"measurement": "GI50", "setting": "MDA-MB-435", "result": "13.6 µM (inactive)"}, {"measurement": "GI50", "setting": "U-251", "result": "14 µM (inactive)"}, {"measurement": "GI50", "setting": "OVCAR-3", "result": "4.65 µM (inactive)"}, {"measurement": "GI50", "setting": "SNB-75", "result": "15.8 µM (inactive)"}, {"measurement": "GI50", "setting": "SK-MEL-5", "result": "15.8 µM (inactive)"}, {"measurement": "GI50", "setting": "MDA-MB-231", "result": "15.9 µM (inactive)"}, {"measurement": "GI50", "setting": "KM12", "result": "11.4 µM (inactive)"}, {"measurement": "GI50", "setting": "TK-10", "result": "24.8 µM (inactive)"}, {"measurement": "GI50", "setting": "LOX IMVI", "result": "8.53 µM (inactive)"}, {"measurement": "GI50", "setting": "EKVX", "result": "12.3 µM (inactive)"}, {"measurement": "GI50", "setting": "A498", "result": "14.1 µM (inactive)"}, {"measurement": "GI50", "setting": "SN12C", "result": "10.9 µM (inactive)"}, {"measurement": "GI50", "setting": "CCRF-CEM", "result": "3.08 µM (inactive)"}, {"measurement": "GI50", "setting": "PC-3", "result": "15.3 µM (inactive)"}, {"measurement": "GI50", "setting": "SF-295", "result": "12.8 µM (inactive)"}, {"measurement": "GI50", "setting": "NCI-H226", "result": "2.53 µM (inactive)"}, {"measurement": "GI50", "setting": "T47D", "result": "> 100 µM (inactive)"}, {"measurement": "GI50", "setting": "BT-549", "result": "18.1 µM (inactive)"}, {"measurement": "GI50", "setting": "SK-MEL-2", "result": "20.2 µM (inactive)"}, {"measurement": "GI50", "setting": "UACC-257", "result": "18.5 µM (inactive)"}, {"measurement": "GI50", "setting": "SF-539", "result": "12.9 µM (inactive)"}, {"measurement": "GI50", "setting": "UACC-62", "result": "11.4 µM (inactive)"}, {"measurement": "GI50", "setting": "IGROV-1", "result": "13.5 µM (inactive)"}, {"measurement": "GI50", "setting": "COLO 205", "result": "12.4 µM (inactive)"}, {"measurement": "GI50", "setting": "M14", "result": "18.2 µM (inactive)"}, {"measurement": "GI50", "setting": "SK-MEL-28", "result": "15.3 µM (inactive)"}, {"measurement": "GI50", "setting": "HOP-62", "result": "13.2 µM (inactive)"}, {"measurement": "GI50", "setting": "SR", "result": "1.21 µM (inactive)"}, {"measurement": "GI50", "setting": "OVCAR-4", "result": "10.2 µM (inactive)"}, {"measurement": "GI50", "setting": "ACHN", "result": "8.2 µM (inactive)"}, {"measurement": "GI50", "setting": "SF-268", "result": "15.4 µM (inactive)"}, {"measurement": "GI50", "setting": "K562", "result": "13.6 µM (inactive)"}, {"measurement": "GI50", "setting": "HOP-92", "result": "15.2 µM (inactive)"}, {"measurement": "GI50", "setting": "Hs-578T", "result": "17.7 µM (inactive)"}]}]}
